Assay results published in PMC11904948, “Peptide‐Drug Conjugate for Therapeutic Reprogramming of Tumor‐Associated Macrophages in Breast Cancer” (Advanced Science, 2025).

Tests used:
orthotopic 4T1 tumors = assay: In vivo photodynamic therapy study in orthotopic 4T1; set-up: species or system Balb/c mice
Procedure: Figure 5 In vitro and in vivo photodynamic therapy with MACTIDE‐V. A) Structure of MACTIDE‐V. B) MACTIDE‐V, CtrlPep‐V, and DOX were incubated with primary human macrophages (obtained from monocytes derived from human blood buffy coat) at 30 µM for 1 h at 37 °C, followed by 2 washes with media. Then, the groups shown in pink were irradiated with 10 J cm^−2 (irradiance: 170 mW cm^−2, spot diameter: 0.5 cm). […] For the irradiated groups, 4 h after administration of conjugates or PBS, the mice were irradiated with 100 J cm^−2; shown is primary tumor volume progression during treatment. Gray arrows indicate injection days. D) Bodyweight during the treatment as % of the initial one. E) Representative mIHC images of PBS, CtrlPep‐V, and MACTIDE‐V‐treated tumors, 20X magnification, scale bar = 100 µm, white triangles point to Foxp3^+ cells. F) CD8^+ T cells, CD4^+ T cells, and Treg density, n = 6 mice/group, with every dot representing the mean cell density of each tumor obtained from 20 images. G) CD8^+ T cells density in CK8^+‐dense tumor regions. n = 5 mice/group, with every dot representing the mean cell density of each tumor obtained from 20 images. Median ± interquartile range. One‐way ANOVA with multiple comparisons, ^* p ≤ 0.05, ^** p ≤ 0.01.
Prompted by the consistent laser‐induced and preferential toxicity of MACTIDE‐V on IL‐4‐stimulated macrophages, we decided to evaluate its in vivo therapeutic effect on mice survival in the orthotopic 4T1 model. […] This prompted us to further investigate the effect of MACTIDE‐V (‐), which hereafter will be denoted simply as “MACTIDE‐V”. To obtain further information on the effect of MACTIDE‐V in this tumor model, we investigated T cell infiltration in treated tumors, using multiplex immunohistochemistry (mIHC), comparing MACTIDE‐V (‐) group to PBS and CtrlPep‐V (‐) groups.
Orthotopic tumors were induced by injecting 5×10^4 4T1 cells in 50 µL of PBS subcutaneously into the 4th mammary fat pad of 8–12‐week‐old female Balb/c mice. When tumors reached ≈40 mm^3, mice were sorted into groups: MACTIDE‐V (+), MACTIDE‐V (‐), CtrlPep‐V (+), CtrlPep‐V (‐), MACTIDE (‐), and PBS (+). Tumors were measured using a digital caliper (Mitutoyo) and volume was calculated using (W^2 × L)/2 formula, where W is the width of a tumor and L is the length. Each group had six mice. The first intraperitoneal injection (30 nmol) was carried out on day 9 post‐tumor induction. 4 h post‐injection, the tumor area was shaved to lessen laser scattering and tumors were irradiated with 100 J cm^−2 using the NIR laser source for PDT described above. Each tumor was measured, and the spot size was adjusted every time, keeping the radiation dose always constant. Irradiation of the tumors was done in complete darkness under anesthesia. Mice recovered on a heating pad and eye drops were applied to avoid eye dryness. All mice, whether irradiated or not, were anesthetized to keep the handling conditions the same. Mouse bodyweights and tumor volumes were monitored every other day. The sacrifice of mice began on day 23 based on their tumor sizes (over 1500 mm^3) or cachexia. The final mice were sacrificed on day 36 post‐tumor induction. Tumor volume curves are shown until day 23 when mice elimination began, and the sample number became too small for statistical comparison. Survival was analyzed using GraphPad Prism to plot Kaplan–Meier survival curves and perform the Mantel–Cox test for statistical analysis. Tumors taken on similar days were analyzed using mIHC.
The staining of 4 µm‐thick formalin‐fixed paraffin‐embedded (FFPE) tissue sections for mIHC analysis was carried out using the tyramide signal amplification‐based Opal method (Akoya Biosciences) on a Leica BOND RX automated immunostainer (Leica Microsystems). For each staining cycle, FFPE slides were deparaffinized and subjected to heat‐induced epitope retrieval at 97 or 100 °C using BOND epitope retrieval solutions ER1 or ER2 (Leica Biosystems).

[1] = Hepatic and renal toxicity serum levels in healthy mice; assay type: in vivo; settings: 48 h after one i.p. dose of 3 mg/Kg, healthy Balb/c mice, n = 4
Procedure: To investigate potential off‐target risk in vivo caused by MACTIDE‐V we analyzed the serum levels of the hepatic enzyme alanine aminotransferase (ALAT) following a 3 mg Kg^−1 dose of MACTIDE‐V in healthy mice. If MACTIDE‐V causes off‐target inflammation, it would likely occur in the liver (the organ that expresses the MACTIDE receptor) and would reflect on ALAT levels (liver inflammation produces a > 2‐fold increase in ALAT^[ [35] ^]).
Table S1. Hepatic and renal toxicity analysed following one dose of MACTIDE-V. Hepatic and renal toxicology serum levels of Crea and ALAT 48 h after i.p.-administration of MACTIDE-V (3 mg/kg) in healthy Balb/c mice (n=4). Normal ranges were obtained from Mouse Phenome Database by The Jackson Laboratory.

[2] = non-irradiated, versus PBS and CtrlPep‐V (‐), n = 6 mice/group

Vert‐Ahx‐G(CTKSIPPIC)SPGAK‐OH (disulfide) [MACTIDE‐V]
mice survival (orthotopic 4T1 tumors; Kaplan–Meier, Mantel–Cox test): no significant differences
primary tumor volume, non‐irradiated (‐) (orthotopic 4T1 tumors; i.p. 30 nmol (1 mg Kg^−1 in Verteporfin), no laser, n = 6/group, significant respect to PBS): strongest tumor volume reduction
primary tumor growth, irradiated (+) (orthotopic 4T1 tumors; i.p. 30 nmol, irradiated 100 J cm^−2 4 h after administration, n = 6/group, versus control groups, not statistically significant): slowed down the tumor growth
body weight, non‐irradiated (‐) (orthotopic 4T1 tumors; i.p. 30 nmol, no laser, % of initial bodyweight): negligible effect on body weight
CD8^+ T cell density in CK8^+‐dense tumor regions (mIHC) (orthotopic 4T1 tumors; non-irradiated, n = 5 mice/group): higher CD8^+ T cell density
CD8^+ T cell infiltration in tumors (mIHC) (orthotopic 4T1 tumors; [2]): significantly higher infiltration of CD8^+ T cells
density of regulatory T cells (Tregs) in tumors (mIHC) (orthotopic 4T1 tumors; [2]): no differences in the density of regulatory T cells
Creatinine, serum ([1]; normal range 10-36): 11.8 ± 1 µM
Alanine aminotransferase, serum ([1]; normal range 50-90): 52 ± 10.5 U/I
